In patent EP0491061A1, “Use of enalapril and perindopril as prolactin-lowering medicament” (Weth, Gosbert Dr. med., Dr. rer. nat., priority 1990, dated 1992):
Entries after “also recorded” stand apart in the source; their conditions may differ.

How the values were obtained:
Prolaktin = assay: Plasma prolactin determination by radioimmunoassay (method of Hwang et al.) in patients after dosing; format: in vivo, Patienten; settings: for Prolaktinsenkung: average weight 60 kg
Dopamin = assay: Plasma dopamine determination (method of Weth) in patients with circulatory disorders after dosing; format: in vivo, Patienten; settings: for Dopamin MW: mean of 12 patients
Description: Die durch die erfindungsgemäß verwendeten N-(Aminoacyl)-aminosäuren erhöhte Freisetzung von Dopamin bei gleichzeitiger Senkung des Prolaktins konnte durch pharmakologische Tests veranschaulicht und bewiesen werden. Die Dopaminbestimmung wurde nach G. Weth, "Das Verhalten der Neurotransmitter....", Dissertation, Würzburg, 1987, S. 123-138, durchgeführt. Die Bestimmung von Prolaktin wurde radioimmunologisch nach den Methoden von P. Hwang, H. Guyda, H. Friesen, Proc. Nat. Sci. (USA) 1971,68-8, S.1902-06 durchgeführt.
Für die Untersuchungen wurden 2x12 Patienten (Alter 75±10 Jahre) herangezogen, die unter Durchblutungsstörungen, sowohl peripheren als auch zentralen, litten. Bei diesen Patienten wurden sowohl vor der Gabe von Enalaprilhydrogenmaleat, als auch 15, 30, 60, und 120 Minuten nach der Gabe von Enalaprilhydrogenmaleat Dopamin und Prolaktin bestimmt.
Die Patienten bekamen sublingual […] Enalaprilhydrogenmaleat verabreicht (RR zwischen 100/70 und 170/110; MW 130/90 mm Hg).
Die Bestimmung der Dopamin- und Prolaktinwerte wurde wie folgt vorgenommen. In Zeitabschnitten von 15, 30, 60 und 120 Minuten wurden dem Patienten je 5 ml Blut entnommen und in speziell präparierten Vakuum-Behältern, die Glutathion und EDTA enthielten gegeben. Das Blut wird sofort auf 2°C abgekühlt und bei 2°C zentrifugiert. Das überstehende Blutplasma wurde bis zur Dopamin- und Prolaktinbestimmung bei minus 80 °C tiefgefroren.
Die Dimensionsangaben betragen für Dopamin pg/ml bzw. ng/l und für Prolaktin ng/ml.

CCC[C@H](N[C@@H](C)C(=O)N1[C@H](C(=O)O)C[C@@H]2CCCC[C@@H]21)C(=O)OCC [Perindopril]
Prolaktin MW (Prolaktin; 30 min after 20 mg Perindopril oral, mean of 12 patients (average weight 60 kg)): 12,3 pg/ml | Prolaktin im Blutplasma (Prolaktin; Fig. 3, 30 min after 20 mg oral): 12 ng/mL | Prolaktin im Blutplasma (Prolaktin; Fig. 3, 90 min after 20 mg oral): 7 ng/mL | Anfangskonzentration Prolaktin (Prolaktin; Fig. 3, before 20 mg oral, blood plasma): 15 ng/mL

CCOC(=O)[C@H](CCc1ccccc1)N[C@@H](C)C(=O)N1CCC[C@H]1C(=O)O [Enalaprilhydrogenmaleat]
Prolaktin MW (Prolaktin; 15 min after 20 mg Enalaprilhydrogenmaleat, plasma, mean of 12 patients): 15,4 ng/ml | Prolaktin MW (Prolaktin; 30 min after 20 mg Enalaprilhydrogenmaleat, plasma, mean of 12 patients): 14,3 ng/ml | Prolaktin MW (Prolaktin; 60 min after 20 mg Enalaprilhydrogenmaleat, plasma, mean of 12 patients): 11,9 ng/ml | Prolaktin MW (Prolaktin; 90 min after 20 mg Enalaprilhydrogenmaleat, plasma, mean of 12 patients): 10,8 ng/ml | Prolaktin MW (Prolaktin; 120 min after 20 mg Enalaprilhydrogenmaleat, plasma, mean of 12 patients): 10,2 ng/ml | Senkung des Prolaktins (Prolaktin; in words, 30 min after sublingual dosing): deutlichen Senkung | Prolaktinsenkung (Prolaktin; in words, Fig. 2, 30 min after 20 mg oral): signifikante | Prolaktinsenkung (Prolaktin; in words, Fig. 2, 60 min after 20 mg oral): hochsignifikante Prolaktinsenkung | Abfall von Prolaktin (Prolaktin; in words, after 25 mg (so in the source)): signifikanten Abfall | Prolaktin MW (Prolaktin; time 0 (before dosing), 20 mg Enalaprilhydrogenmaleat, plasma, mean of 12 patients): 16,2 ng/ml | Dopamin MW (Dopamin; 15 min after 20 mg Enalaprilhydrogenmaleat, plasma): 143 pg/mL | Dopamin MW (Dopamin; 30 min after 20 mg Enalaprilhydrogenmaleat, plasma): 188 pg/mL | Dopamin MW (Dopamin; 60 min after 20 mg Enalaprilhydrogenmaleat, plasma): 253 pg/mL | Dopamin MW (Dopamin; 90 min after 20 mg Enalaprilhydrogenmaleat, plasma): 230 pg/mL | Dopamin MW (Dopamin; 120 min after 20 mg Enalaprilhydrogenmaleat, plasma): 182 pg/mL | Höhepunkt des Dopaminanstiegs (time) (Dopamin; Fig. 1, 20 mg sublingual, average weight 60 kg, plasma): 60 min | Anstieg des Dopamins (Dopamin; in words, 15 min after sublingual dosing): hochsignifikanten Anstieg; also recorded: signifikanten Anstieg | Dopamin MW (Dopamin; time 0 (before dosing), 20 mg Enalaprilhydrogenmaleat, plasma): 105 pg/mL
